Reference: patent publication US7935532B2, “DWF4 polynucleotides, polypeptides and uses thereof” (Arizona Board of Regents for and on behalf of Arizona State …, priority 1999, dated 2011)

Assays:
[1] = test system: dwf4 seedlings; experiment: Feeding of BR biosynthetic intermediates to dwf4 seedlings in liquid media (rescue, dose-response); type: in vivo, Arabidopsis thaliana; settings: for rescue of the light-grown dwf4 phenotype: liquid media
Protocol: In view of the results described above, we hypothesized that DWF4 mediates one or more of several steroid hydroxylation steps in the BR biosynthetic pathway. To test this, dwf4 was grown on all of the available biosynthetic intermediates in the BR biosynthetic pathways and examined to ascertain which intermediates could rescue the dwarf phenotype. In addition to the intermediates belonging to the early C-6 oxidation and late C-6 oxidation pathways (Choi et al. (1997), supra), 22α-hydroxycampesterol (22-OHCR), 6α-hydroxycastasterone (6-OHCT) (Takatsuto et al. (1997) J. Chem. Res. (synop.) 11:418-419), and […] (S. Takatsuto, T. Watanabe, T. Noguchi, and S. Fujioka, unpublished data) were synthesized and tested.
Germinated seedlings were transferred to media supplemented with one of the intermediates or BL to pinpoint the step catalyzed by DWF4. […] In addition, the rescued seedlings were less green than the dwarfs. These experiments were conducted in liquid media. Feeding experiments performed in the dark yielded similar results.
However, on CT the overall morphology of dwf4 was essentially rescued to wild-type phenotype at 3×10^−7 M and higher, whereas with 6-deoxoCT, rescue occurred with as little as 10^−7 M and may have even been inhibitory at higher concentrations. Of particular interest is the more dramatic response of the epicotyls versus the smaller response of the hypocotyls to CT. This same phenomenon was true for seedlings treated with >10^−7 M 6-deoxoCT.
A higher concentration of CT for dark-grown seedlings, compared with light-grown seedlings, 3×10^−6 M (FIG. 5B), was required to convert the hypocotyl to a length similar to that of the wild type.

[2] = test system: 6-week-old dwf4 plants; experiment: Treatment of soil-grown mature dwf4 plants with BR intermediates and BL (pedicel elongation); type: in vivo, Arabidopsis thaliana
Protocol: To determine whether the results of the seedling feeding experiments could be applicable to soil-grown mature plants, 6-week-old dwf4 plants were treated with BR intermediates and BL. Concentrations of applied intermediates were adjusted empirically to optimize responses. Consistent with the results obtained from the seedlings experiments, only 22α-hydroxylated compounds can rescue the dwf4 phenotype. The elongation response was only observed in the young tissues of the inflorescence, regardless of whether the BRs were applied locally or sprayed over the entire plant. In contrast to the striking elongation of the peduncles and pedicels, fertility was not restored by BR treatment. The sterility in dwf4 is hypothesized to be mechanical, which means that the filaments are shorter than the carpels such that the pollen is shed onto the ovary walls rather than onto the stigmatic surface. In fact, if dwf4 plants are hand pollinated using […], fertility increases.

[3] = test system: dwf8-1; experiment: Feeding of 22-OHCR to dwf8-1 dwarf mutant; type: in vivo, Arabidopsis thaliana; settings: unpublished data
[4] = test system: dwf4 seedlings; experiment: Brassinolide response of seedlings in liquid culture (hypocotyl length); type: in vivo, Arabidopsis thaliana; settings: liquid medium, 10^−6 M BL
Protocol: Gibberellic acid (GA) response was assayed on plants grown individually in 5.7-cm pots. Once inflorescences reached 1 to 2 mm in height, they were sprayed weekly with 1 mM GA3 (Sigma). Control plants were sprayed with water. One week after the third spraying, plants were collected, and the length of the main stem was measured between the top of the rosette and the base of the most distal pedicel; 13 to 18 plants of each line were measured per treatment. Auxin response was tested by growing seedlings for 10 days under 16 hr of light on vertically oriented agar plates containing various concentrations of 2,4-D (Gibco, Grand Island, N.Y.). Genetic interaction with the hy2 mutation was tested by growing seedlings under continuous light for 7 days. Brassinolide (BL) response was determined in liquid culture, as described by Clouse et al. (1993) supra, except that three or four seedlings were grown in each well of a 24-well culture plate for 7 days. Measurements were taken for 10 to 20 seedlings for each genotype and condition, under a dissection microscope fitted with an ocular micrometer.
In the course of our studies, we prepared a genomic library from dwf4-1, from which we isolated a clone in which a fragment of T-DNA interrupts a gene encoding a putative cytochrome P450 steroid hydroxylase.

[5] = test system: rice lamina; settings: Fujioka et al. (1995b); cited from earlier work

SMILES	rescue of the light-grown dwf4 phenotype ([1]; light-grown seedlings)	effectiveness in rescuing the dwf4 phenotype, light versus dark ([1]; unpublished data)	pedicel elongation response ([2]; 22-OHCR 10^−5 M)	rescue of dwf8-1 dwarf mutant [3]	dwf4 hypocotyl height [4]	bioactivity in dwf4 pedicel elongation ([2]; BL 10^−7 M)	degree of pedicel elongation response ([2]; BL 10^−7 M versus precursors)	concentration required to convert the dwf4 hypocotyl to a length similar to wild type ([1]; dark-grown seedlings) [µM]	concentration at which dwf4 overall morphology is rescued to wild-type phenotype ([1]; light-grown seedlings, dose-response)	activity relative to 6-oxoCN [5] [times]
CC(C)[C@H](C)C[C@H](O)[C@@H](C)[C@H]1CC[C@H]2[C@@H]3CC=C4C[C@@H](O)CC[C@]4(C)[C@H]3CC[C@]12C [22-OHCR, 22α-hydroxycampesterol]	rescued	more effective in the light	dramatic elongation response	not rescued						
CC(C)[C@H](C)[C@@H](O)[C@H](O)[C@@H](C)[C@H]1CC[C@H]2[C@@H]3COC(=O)[C@H]4C[C@H](O)[C@H](O)C[C@]4(C)[C@H]3CC[C@]12C [BL, 2α, 3α, 22(R), 23(R)-tetrahydroxy-24(S)-methyl-B-homo-7-oxa-5α-cholestan-6-one]					restored to wild-type height	highest bioactivity	approximately the same degree of response as its precursor compounds at 10^−6 M			
CC(C)[C@H](C)C[C@H](O)[C@@H](C)[C@H]1CC[C@H]2[C@@H]3CC(=O)[C@H]4C[C@@H](O)CC[C@]4(C)[C@H]3CC[C@]12C [CT, Cathasterone]	rescued							3	≥ 3×10^−7 M	~500
